Activity calls are given as the source filed them. The rule behind the calls is not given here.

The nature of this assay: non-covalent RecA intein splicing inhibitors, dose response, biochemical, cell-free, fluorescence, secondary screen (AID 449750).
As for `COC(=O)c1ccc(NC(=O)c2nc(S(=O)(=O)Cc3cccc(C)c3)ncc2Cl)cc1`, the AC50 was 17.1 µM.

For the compound `O=[N+]([O-])c1c(NCCCO)cc(SCc2ccco2)c2nonc12`, the AC50 is > 38 µM (inactive).

Turning to `ONc1cccnc1-n1nc(C(F)(F)F)cc1C(F)(F)F`, the AC50 was > 38 µM (inactive).

For the compound `N#Cc1cc(-c2ccccc2)nc(Oc2ccccc2)n1`, the AC50 is > 38 µM (inactive).

For `CCOC(=O)c1ccc(NC2=CC(=O)C(=O)c3ccccc32)cc1`, the AC50 is > 38 µM (inactive).

For the compound `Cc1cc(C(=O)c2ccc(Cl)cc2)c(NC(=O)CCl)s1`, the AC50 is 1.19 µM.

Take `COC(=O)c1nc(NC(=O)c2ccc(C(C)(C)C)cc2)n[nH]1`: the AC50 was > 38 µM (inactive).

Turning to `O=[N+]([O-])c1cc(Br)c(Nc2ccccc2)c([N+](=O)[O-])c1`, the AC50 is 7.02 µM.

As for `CCc1[nH]nc2c1C(c1cccnc1)C(C#N)=C(N)O2` (configuration not stated), the AC50 was > 38 µM (inactive).

As for `O=S(=O)(Nc1ccc(O)c2ccccc12)c1ccc(OC(F)(F)F)cc1`, the AC50 was 0.779 µM.

As for `COc1ccc(-c2oc(NC(=O)CCl)c(C#N)c2-c2ccc(OC)cc2)cc1`, the AC50 was 1.55 µM.

Regarding `CCCc1[nH]nc2c1C(c1ccc(OC)c(CSC3=NCCS3)c1)C(C#N)=C(N)O2` (configuration not stated), the AC50 was 18.5 µM.

As to `O=C(CNC1=NCCC1)c1ccc(Cl)cc1`, the AC50 was > 38 µM (inactive).

On to `Cc1[nH]nc2c1C1(CCOCC1)C(C#N)=C(N)O2`, for which the AC50 is > 38 µM (inactive).

In the case of `CCCc1[nH]nc2c1C(c1ccc(OC)cc1OC)C(C#N)=C(N)O2` (configuration not stated), the AC50 was 32.3 µM.

Consider `O=C(CCl)N1N=C(c2ccco2)CC1c1ccco1` (configuration not stated), for which the AC50 is 19.1 µM.

Regarding `Cc1[nH]n(-c2ccccc2)c(=O)c1/C=C1\C=NN=C1c1ccccc1`, the AC50 was 17 µM.

For `Cc1nc2ccccc2c2c1C(=O)NC2=O`, the AC50 was > 38 µM (inactive).

Regarding `CC(=O)c1ccc(OC(=O)c2cccs2)cc1`, the AC50 is > 38 µM (inactive).

As for `Cc1c(C)n(O)c2ccc3nonc3c12`, the AC50 was 26.8 µM.

For the compound `CC(=O)Oc1c(/C=C(\C#N)C(N)=O)[nH]c2ccccc12`, the AC50 was > 38 µM (inactive).

Regarding `CCOC(=O)/C(C#N)=C1/SC(C)C(=O)N1c1ccc(Br)cc1` (configuration not stated), the AC50 was > 38 µM (inactive).

For `Cc1nccn1-c1c([N+](=O)[O-])c(=O)n(C)c2ccccc12`, the AC50 is > 38 µM (inactive).

Consider `Cc1ccc(-n2nc(C)c3c2OC(N)=C(C#N)C3c2cccs2)cc1` (configuration not stated), for which the AC50 is 21.1 µM.

For `CCOCC(=O)NCc1ccc2c(c1)cc(C)n2C`, the AC50 is > 38 µM (inactive).

Regarding `Cc1c(C#N)c(NC(=O)CCl)n(Cc2ccccc2)c1C`, the AC50 was 7.6 µM.

For the compound `Cc1cccc(CS(=O)(=O)c2ncc(Cl)c(C(=O)NCc3ccc4c(c3)OCO4)n2)c1`, the AC50 was > 38 µM (inactive).

Turning to `O=C(N/N=C/c1cc(Cl)cc([N+](=O)[O-])c1O)c1ccccc1NS(=O)(=O)c1cccs1`, the AC50 is 22.6 µM.

On to `CCCCn1[nH]c(-c2ccccc2)cc1=O`, for which the concentration at half-maximal activity (AC50) was 8.57 µM.

`O=C(Oc1ccc(-n2cnnn2)cc1)c1ccco1`: the AC50 was > 38 µM (inactive).

For `CCCc1[nH]nc2c1C(c1ccc(OCCN3CCOCC3)c(OCC)c1)C(C#N)=C(N)O2` (configuration not stated), the AC50 is > 38 µM (inactive).

Turning to `O=C(NN=c1c(=O)c2ccccc2c1=O)c1ccccc1`, the AC50 was 8.96 µM.

For `N=c1c2c(-c3ccccc3)c(-c3ccccc3)n(Cc3ccco3)c2ncn1Cc1ccco1`, the AC50 was 6.99 µM.

With `O=C(/C=C/c1ccc(O)cc1)c1ccc(NC2=C(N3CCCCC3)C(=O)c3ccccc3C2=O)cc1`, the AC50 was 2.06 µM.

For `CCOc1cc(/C=C2/SC(=S)N(Cc3ccccc3)C2=O)ccc1O`, the AC50 was > 38 µM (inactive).

Turning to `CCOc1ccc(CN2CCN(CC3=Cc4cccc(OC)c4OC3)CC2CCO)cc1` (configuration not stated), the AC50 was > 38 µM (inactive).

For `N#Cc1ccc(-n2c(-c3ccccc3)nnc2-c2ccccc2)cc1C#N`, the AC50 is > 38 µM (inactive).

The values are drawn from PubChem BioAssay AID449750 (Broad Institute, 2010).
